Reference: patent US11738008B2, “N-methyl-D-aspartic acid receptor modulators” (Emory University, priority 2018, dated 2023)
≈ marks a conversion by molar mass, not a printed value. Like-named read-outs stand apart in the source and are kept apart here.

Assays:
rat GluN1/GluN2D [1] = target: rat GluN1/GluN2D (Rattus norvegicus, UniProt P35439+Q62645); assay: Two-electrode voltage clamp recordings in Xenopus laevis oocytes, potentiation of GluN1/GluN2D; assay type: cell-based
Procedure: (§1) Xenopus laevis oocytes were purchased unfertilized from Ecocyte (Austin, Tex.). The oocytes were injected with mRNA to express recombinant rat GluN1/GluN2A, GluN1/GluN2B, GluN1/GluN2C, and GluN1/GluN2D and two-electrode voltage clamp (TEVC) recordings were performed. Drs. S. Heinemann (Salk Institute), S. Nakanishi (Kyoto University), and P. Seeburg (University of Heidelberg) provided the cDNAs for rat GluN1-1a (GenBank accession numbers U11418 and U08261, referred to as GluN1 henceforth), GluN2A (D13211), GluN2B (U11419), GluN2C (M91563), and GluN2D (D13213). GluN2C and GluN2D were altered according to literature precedent. […] To prevent the current increase typically seen during experiments with oocytes expressing GluN1/GluN2A receptors, the oocytes were either injected with 20 nL of 100 mM K-BAPTA (potassium 1,2-bis(o-aminophenoxy)ethane-N,N,N,N-tetraacetic acid) or pretreated with 50 μM BAPTA-AM (1,2-bis(o-aminophenoxy)ethane-N,N,N,N-tetraacetic acid tetraacetoxymethyl ester) for 10 minutes.

rat GluN1/GluN2D [2] = target: rat GluN1/GluN2D (Rattus norvegicus, UniProt Q62645); assay: as above; assay type: cell-based
Procedure: as §1

α2C = α2C (Homo sapiens, UniProt P18825); assay: NIMH PDSP radioligand binding, α2C; settings: read-out: Radioligand binding in 10 μM compound (% control)
Procedure: (§2) The NIMH PDSP is Directed by Bryan L. Roth at the University of North Carolina at Chapel Hill and Project Officer Jamie Driscoll at NIMH, Bethesda Md., USA. Radioligand binding was measured in the presence of 10 μM 1180-420 and 1180-447. […] For experimental details please refer to the PDSP web site https://pdsp.unc.edu/ims/investigator/web/. Both 1180-420 and 1180-447 were also tested at AMPA, nicotinic acetylcholine, serotonin, GABA, and glycine ion channels using a two-electrode voltage clamp assay.
(§3) Receptor binding profiles of compound 1180-447 were generously provided by the National Institute of Mental Health's Psychoactive Drug Screening Program, Contract # HHSN-271-2013-00017-C(NIMH PDSP). The NIMH PDSP is directed by Bryan L. Roth at the University of North Carolina at Chapel Hill and Project Officer Jamie Driscoll at NIMH, Bethesda Md., USA. Radioligand binding was measured in the presence of 10 μM 1180-447. […] For experimental details please refer to the PDSP web site https://pdsp.unc.edu/ims/investigator/web/.
(§4) The NIMH PDSP is Directed by Bryan L. Roth at the University of North Carolina at Chapel Hill and Project Officer Jamie Driscoll at NIMH, Bethesda Md., USA. Radioligand binding was measured in the presence of 10 μM 1180-420. […] For experimental details please refer to the PDSP web site https://pdsp.unc.edu/ims/investigator/web/.

[3] = tested on: benzodiazapine rat brain site; assay: NIMH PDSP radioligand binding, benzodiazapine rat brain site
Procedure: as §2, §3, §4

α1β2γδ-nACh = assay: Off-target two-electrode voltage clamp assay, α1β2γδ-nACh; assay type: cell-based; settings: 10 μM, mean ± SEM
Procedure: as §2

α1-Glycine = target: T1, α1-Glycine (Homo sapiens, UniProt P23415); assay: Off-target two-electrode voltage clamp assay, α1-Glycine; assay type: cell-based; settings: 10 μM, mean ± SEM
T1 construct: expressed in transfected cells
Procedure: as §2

α1β2γ2-GABAA = target: T2, α1β2γ2-GABAA (Homo sapiens, UniProt P14867+P18507+P47870); assay: Off-target two-electrode voltage clamp assay, α1β2γ2-GABAA; assay type: cell-based; settings: 10 μM, mean ± SEM
T2 construct: expressed in transfected cells
Procedure: as §2

δ-opioid receptor = δ-opioid receptor (Homo sapiens, UniProt P41143); assay: NIMH PDSP radioligand binding, δ-opioid receptor; settings: read-out: Radioligand binding in 10 μM compound (% control)
Procedure: as §2, §3, §4

[4] = nephelometer, oocyte recording solution
5-HT3A = target: T3, 5-HT3A (Homo sapiens, UniProt P46098); assay: Off-target two-electrode voltage clamp assay, 5-HT3A; assay type: cell-based; settings: 10 μM, mean ± SEM
T3 construct: expressed in transfected cells
Procedure: as §2

Chain of α2C (P18825 whole entry): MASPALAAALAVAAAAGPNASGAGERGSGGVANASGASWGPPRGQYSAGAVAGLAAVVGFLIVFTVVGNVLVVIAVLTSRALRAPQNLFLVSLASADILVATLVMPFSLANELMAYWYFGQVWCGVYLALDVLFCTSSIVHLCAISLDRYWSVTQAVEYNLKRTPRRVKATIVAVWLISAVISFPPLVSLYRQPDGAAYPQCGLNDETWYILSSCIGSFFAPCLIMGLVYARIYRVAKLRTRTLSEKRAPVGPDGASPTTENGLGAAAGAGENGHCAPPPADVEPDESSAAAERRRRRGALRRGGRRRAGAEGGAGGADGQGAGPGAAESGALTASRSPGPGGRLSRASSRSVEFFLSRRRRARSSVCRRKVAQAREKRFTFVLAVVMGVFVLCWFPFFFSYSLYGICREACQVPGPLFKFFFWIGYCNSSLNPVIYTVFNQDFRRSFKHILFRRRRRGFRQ
Chain of rat GluN1/GluN2D (Rattus norvegicus, UniProt P35439+Q62645) (Q62645 28-1323, other chains not shown): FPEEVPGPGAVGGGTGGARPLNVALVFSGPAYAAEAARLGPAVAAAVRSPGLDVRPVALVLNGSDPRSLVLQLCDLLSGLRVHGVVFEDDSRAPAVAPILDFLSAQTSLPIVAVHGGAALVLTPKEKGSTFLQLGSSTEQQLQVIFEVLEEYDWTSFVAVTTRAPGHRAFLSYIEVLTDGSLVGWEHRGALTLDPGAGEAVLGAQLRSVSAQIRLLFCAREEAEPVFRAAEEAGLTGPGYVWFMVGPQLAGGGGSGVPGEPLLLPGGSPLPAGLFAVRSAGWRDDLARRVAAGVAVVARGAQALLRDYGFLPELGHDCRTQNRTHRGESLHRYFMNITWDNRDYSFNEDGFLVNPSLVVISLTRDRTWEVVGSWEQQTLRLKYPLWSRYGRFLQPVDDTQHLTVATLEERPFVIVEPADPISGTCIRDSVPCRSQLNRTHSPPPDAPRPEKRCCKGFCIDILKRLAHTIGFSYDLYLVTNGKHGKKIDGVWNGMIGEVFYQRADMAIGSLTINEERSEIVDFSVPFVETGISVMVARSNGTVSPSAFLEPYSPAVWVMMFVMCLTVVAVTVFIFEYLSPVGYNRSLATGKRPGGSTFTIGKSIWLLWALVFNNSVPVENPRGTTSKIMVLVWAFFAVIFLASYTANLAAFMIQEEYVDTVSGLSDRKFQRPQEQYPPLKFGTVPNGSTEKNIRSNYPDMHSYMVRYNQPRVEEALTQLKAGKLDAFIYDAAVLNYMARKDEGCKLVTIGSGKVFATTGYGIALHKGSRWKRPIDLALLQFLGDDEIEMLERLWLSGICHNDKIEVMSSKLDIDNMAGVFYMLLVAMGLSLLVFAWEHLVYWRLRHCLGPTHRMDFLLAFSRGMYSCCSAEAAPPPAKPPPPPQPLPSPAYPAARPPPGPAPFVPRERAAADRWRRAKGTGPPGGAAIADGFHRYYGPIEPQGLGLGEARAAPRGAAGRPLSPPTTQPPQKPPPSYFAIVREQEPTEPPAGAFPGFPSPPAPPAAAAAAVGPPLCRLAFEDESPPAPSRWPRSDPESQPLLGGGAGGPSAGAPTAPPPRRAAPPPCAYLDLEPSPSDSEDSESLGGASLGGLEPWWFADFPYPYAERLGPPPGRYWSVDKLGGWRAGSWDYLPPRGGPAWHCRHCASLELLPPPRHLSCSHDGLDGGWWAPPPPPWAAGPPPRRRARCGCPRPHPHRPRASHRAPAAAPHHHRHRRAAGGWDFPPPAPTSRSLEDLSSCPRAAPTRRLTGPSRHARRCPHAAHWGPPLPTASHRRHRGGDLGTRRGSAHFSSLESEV
Chain of rat GluN1/GluN2D (Rattus norvegicus, UniProt Q62645) (Q62645 28-1323, other chains not shown): as above
T2 sequence (P14867 28-456): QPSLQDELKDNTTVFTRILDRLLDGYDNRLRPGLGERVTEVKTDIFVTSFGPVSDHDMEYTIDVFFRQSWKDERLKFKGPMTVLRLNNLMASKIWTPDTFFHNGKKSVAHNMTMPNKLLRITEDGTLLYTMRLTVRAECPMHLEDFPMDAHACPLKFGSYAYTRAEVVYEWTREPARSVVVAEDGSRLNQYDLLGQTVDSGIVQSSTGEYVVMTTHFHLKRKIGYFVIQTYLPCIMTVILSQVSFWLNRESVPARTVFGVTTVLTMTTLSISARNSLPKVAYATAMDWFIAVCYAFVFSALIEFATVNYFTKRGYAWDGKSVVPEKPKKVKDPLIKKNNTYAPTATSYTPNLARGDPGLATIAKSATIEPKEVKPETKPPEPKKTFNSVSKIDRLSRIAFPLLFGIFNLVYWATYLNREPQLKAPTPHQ
T2 sequence (P47870 25-512 limits assumed): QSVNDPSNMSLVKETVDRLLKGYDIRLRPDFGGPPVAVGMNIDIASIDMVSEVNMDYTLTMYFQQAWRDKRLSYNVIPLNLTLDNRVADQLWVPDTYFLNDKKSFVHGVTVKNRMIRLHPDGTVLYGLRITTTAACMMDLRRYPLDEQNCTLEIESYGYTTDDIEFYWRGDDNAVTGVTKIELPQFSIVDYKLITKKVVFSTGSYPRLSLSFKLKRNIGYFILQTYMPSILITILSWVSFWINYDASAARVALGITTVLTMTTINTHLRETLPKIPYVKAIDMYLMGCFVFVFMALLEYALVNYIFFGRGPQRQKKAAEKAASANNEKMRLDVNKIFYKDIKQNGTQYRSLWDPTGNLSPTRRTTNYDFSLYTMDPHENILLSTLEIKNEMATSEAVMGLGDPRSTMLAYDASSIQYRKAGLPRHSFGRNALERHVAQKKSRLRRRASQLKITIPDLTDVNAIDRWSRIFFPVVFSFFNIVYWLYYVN
T2 sequence (P18507 39-475 limits assumed): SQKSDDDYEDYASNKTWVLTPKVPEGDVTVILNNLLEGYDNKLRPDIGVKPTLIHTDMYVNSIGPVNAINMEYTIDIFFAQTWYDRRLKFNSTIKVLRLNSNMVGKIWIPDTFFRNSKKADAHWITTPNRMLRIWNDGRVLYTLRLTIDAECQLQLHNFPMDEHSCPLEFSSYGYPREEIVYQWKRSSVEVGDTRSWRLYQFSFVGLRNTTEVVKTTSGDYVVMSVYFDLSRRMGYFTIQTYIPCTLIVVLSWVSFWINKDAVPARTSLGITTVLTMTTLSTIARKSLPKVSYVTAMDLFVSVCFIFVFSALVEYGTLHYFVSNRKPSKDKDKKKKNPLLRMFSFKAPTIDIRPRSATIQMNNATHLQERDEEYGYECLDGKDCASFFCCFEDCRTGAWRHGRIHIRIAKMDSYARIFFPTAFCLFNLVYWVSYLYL
Chain of δ-opioid receptor (P41143 whole entry): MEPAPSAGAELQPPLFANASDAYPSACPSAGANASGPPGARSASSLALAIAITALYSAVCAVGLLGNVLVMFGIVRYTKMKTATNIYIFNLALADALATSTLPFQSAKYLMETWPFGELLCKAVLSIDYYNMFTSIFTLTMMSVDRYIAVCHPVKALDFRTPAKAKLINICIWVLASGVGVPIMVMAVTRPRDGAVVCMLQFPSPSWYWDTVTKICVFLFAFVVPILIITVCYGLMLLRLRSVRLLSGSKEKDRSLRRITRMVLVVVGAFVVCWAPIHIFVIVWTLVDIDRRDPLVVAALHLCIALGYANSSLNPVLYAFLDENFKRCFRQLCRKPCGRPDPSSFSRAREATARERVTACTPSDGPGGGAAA
T3 sequence (P46098 24-478, species assumed): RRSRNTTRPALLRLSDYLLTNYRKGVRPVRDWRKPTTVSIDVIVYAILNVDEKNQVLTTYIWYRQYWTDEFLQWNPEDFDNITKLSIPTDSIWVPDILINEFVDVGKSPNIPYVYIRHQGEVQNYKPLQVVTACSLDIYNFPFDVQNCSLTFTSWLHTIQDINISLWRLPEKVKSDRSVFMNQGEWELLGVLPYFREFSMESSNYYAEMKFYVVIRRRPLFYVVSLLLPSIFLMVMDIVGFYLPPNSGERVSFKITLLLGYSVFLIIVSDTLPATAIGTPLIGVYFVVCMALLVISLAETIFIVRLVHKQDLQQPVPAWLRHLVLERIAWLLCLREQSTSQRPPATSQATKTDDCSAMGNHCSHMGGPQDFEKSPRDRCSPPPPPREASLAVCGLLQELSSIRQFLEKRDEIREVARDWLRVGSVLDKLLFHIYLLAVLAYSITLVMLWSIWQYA
T1 sequence (P23415 29-457): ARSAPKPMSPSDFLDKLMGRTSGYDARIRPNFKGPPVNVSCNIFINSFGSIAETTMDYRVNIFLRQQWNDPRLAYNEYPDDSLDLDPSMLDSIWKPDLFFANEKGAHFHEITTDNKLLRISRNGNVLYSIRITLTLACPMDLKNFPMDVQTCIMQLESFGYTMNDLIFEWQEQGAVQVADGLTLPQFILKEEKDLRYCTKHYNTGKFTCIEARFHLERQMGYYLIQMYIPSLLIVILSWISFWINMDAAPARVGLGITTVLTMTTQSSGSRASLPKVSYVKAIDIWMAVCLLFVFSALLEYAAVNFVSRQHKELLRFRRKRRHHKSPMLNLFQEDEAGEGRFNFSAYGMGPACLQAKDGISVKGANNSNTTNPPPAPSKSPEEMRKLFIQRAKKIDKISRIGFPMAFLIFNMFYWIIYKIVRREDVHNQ

SMILES	EC50 (rat GluN1/GluN2D [1]; read-out: GluN2D EC50) [µM]	GluN2D Max % (rat GluN1/GluN2D [2]; maximal response, current without potentiator = 100%) [%]	remaining activity at 10 µM (α2C) [%]	Radioligand binding in 10 μM compound (% control) [3] [% control]	% control response (α1β2γδ-nACh) [% control response]	% control response (α1-Glycine) [% control response]	% control response (α1β2γ2-GABAA) [% control response]	remaining activity at 10 µM (δ-opioid receptor) [%]	EC50 (rat GluN1/GluN2D [1]; read-out: GluN2D pEC50 [95% CI] (converted)) [µM]	GluN2D (max) (%) (rat GluN1/GluN2D [2])	Solubility [4] [µM]	% control response (5-HT3A) [% control response]
COc1ccc(OCC2c3cccn3CCN2C(=O)c2cccc(Cl)c2)cc1 (centres unmarked) [1180-420, (3-Chlorophenyl)(1-((4-methoxyphenoxy)methyl)-3,4-dihydropyrrolo[1,2-a]pyrazin-2(1H)-yl)methanone]	2.3	374	83	71	93.4 ± 15.5	77.6 ± 4.9	81.4 ± 8.5	89				
COc1ccc(OCC2c3cccn3CC(=O)N2Cc2cccc(C(F)(F)F)c2)cc1 (racemic) [1180-447, 1-((4-Methoxyphenoxy)methyl)-2-(3-(trifluoromethyl)benzyl)-1,2-dihydropyrrolo[1,2-a]pyrazin-3(4H)-one]			85	88	78.5 ± 4.5		81.7 ± 7.5	93	1.58	(396) %	57 (≈ 24.5 µg/mL)	98.1 ± 10.4
